Measured values: patent US9856216B2, “Compounds as TNIK, IKKε and TBK1 inhibitors and pharmaceutical composition comprising same” (GREEN CROSS CORPORATION, priority 2015, dated 2018)

These molecules were tested against T1, TNIK (Homo sapiens, UniProt Q9UKE5) (assay: ADP-Glo Kinase Assay, inhibition activity on TNIK). Settings: not given.
T1 construct: purchased Promega V4158
T1 sequence (Q9UKE5 1-367 limits assumed): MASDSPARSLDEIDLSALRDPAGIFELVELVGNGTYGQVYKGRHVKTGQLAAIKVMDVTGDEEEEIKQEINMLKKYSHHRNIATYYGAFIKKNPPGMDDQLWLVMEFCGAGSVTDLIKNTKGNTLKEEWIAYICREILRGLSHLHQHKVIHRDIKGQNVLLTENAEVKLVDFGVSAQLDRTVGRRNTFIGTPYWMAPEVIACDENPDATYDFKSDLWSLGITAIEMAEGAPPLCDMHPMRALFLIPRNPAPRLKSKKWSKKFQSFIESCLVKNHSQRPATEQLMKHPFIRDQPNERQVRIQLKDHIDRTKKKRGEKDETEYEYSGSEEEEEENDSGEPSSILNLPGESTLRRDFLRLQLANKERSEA
Format: biochemical
Procedure: The inhibition activities on TNIK, IKKε and TBK1 were measured by a luminometer, TNIK/IKKε/TBK1 Kinase Enzyme System (Promega, Ca# V4158; Invitrogen, PR8031B, Promega, Ca# V3991) and ADP-Glo Kinase Assay using ADP-Glo™ Kinase Analysis Kit (Promega, Ca# V9101) and a kinase reaction buffer [40 mM Tris(pH 7.5), 20 mM MgCl2, 0.1 mg/mL BSA] in accordance with the manufacturer's protocol.
For `COC(=O)c1ccc(-c2ccc(NC(=O)c3ccccc3)c3c2CNC3=O)cc1` [Example 10, methyl 4-(7-benzamido-1-oxoisoindolin-4-yl)benzo ate], the “TNIK (μM)” value was “Insoluble”.
With `CC(=O)c1ccc(-c2ccc(NC(=O)c3ccccc3)c3c2CNC3=O)cc1` [Example 13, N-(7-(4-acetylphenyl)-3-oxoisoindolin-4-yl)benzamide] the “TNIK (μM)” value was “Insoluble”.
For `O=C(Nc1ccc(-c2cc(Cl)ccc2Cl)c2c1C(=O)NC2)c1ccccc1` [Example 19, N-(7-(2,5-dichlorophenyl)-3-oxoisoindolin-4-yl)benzamide], the “TNIK (μM)” value was “Insoluble”.
`COc1cc(F)ccc1-c1ccc(NC(=O)c2ccccc2)c2c1CNC2=O` [Example 22, N-(7-(4-fluoro-2-methoxyphenyl)-3-oxoisoindolin-4-yl)benzamide] was tested, and the “TNIK (μM)” value was “Insoluble”.
`COc1ccc(-c2ccc(NC(=O)c3ccccc3)c3c2CNC3=O)c(OC)c1OC` [Example 25, N-(3-oxo-7-(2,3,4-trimethoxyphenyl)isoindolin-4-yl)benzamide] was tested, and the “TNIK (μM)” value was “Insoluble”.

Same assay, conditions: read-out: TNIK
With `CCc1ccccc1-c1ccc(NC(=O)c2ccccc2)c2c1CNC2=O` [Example 1, N-(7-(2-ethylphenyl)-3-oxoisoindolin-4-yl)benzamide] the IC50 was 3.1 µM.
In the case of `CC(C)c1cccc(-c2ccc(NC(=O)c3ccccc3)c3c2CNC3=O)c1` [Example 2, N-(7-(3-isopropylphenyl)-3-oxoisoindolin-4-yl)benzamide], the IC50 is reported as > 20 µM.
`CC(C)(C)c1ccc(-c2ccc(NC(=O)c3ccccc3)c3c2CNC3=O)cc1` [Example 3, N-(7-(4-(tert-butyl)phenyl)-3-oxoisoindolin-4-yl)benzamide] was tested, and the IC50 was > 20 µM.
`O=C(Nc1ccc(-c2ccccc2OC(F)(F)F)c2c1C(=O)NC2)c1ccccc1` [Example 4, N-(3-oxo-7-(2-(trifluoromethoxy)phenyl)isoindolin-4-yl)benzamide] was tested, and the IC50 was 3 µM.
With `O=C(Nc1ccc(-c2cccc(OC(F)(F)F)c2)c2c1C(=O)NC2)c1ccccc1` [Example 5, N-(3-oxo-7-(3-(trifluoromethoxy)phenyl)isoindolin-4-yl)benzamide] the IC50 was > 20 µM.
With `CC(C)Oc1ccccc1-c1ccc(NC(=O)c2ccccc2)c2c1CNC2=O` [Example 6, N-(7-(2-isopropoxyphenyl)-3-oxoisoindolin-4-yl)benzamide] the IC50 was > 20 µM.
With `CC(C)Oc1cccc(-c2ccc(NC(=O)c3ccccc3)c3c2CNC3=O)c1` [Example 7, N-(7-(3-isopropoxyphenyl)-3-oxoisoindolin-4-yl)benzamide] the IC50 was > 20 µM.
With `COC(=O)c1ccccc1-c1ccc(NC(=O)c2ccccc2)c2c1CNC2=O` [Example 8, methyl 2-(7-benzamido-1-oxoisoindolin-4-yl)benzo ate] the IC50 was > 20 µM.
`COC(=O)c1cccc(-c2ccc(NC(=O)c3ccccc3)c3c2CNC3=O)c1` [Example 9, methyl 3-(7-benzamido-1-oxoisoindolin-4-yl)benzo ate] was tested, and the IC50 was > 20 µM.
In the case of `CC(=O)c1ccccc1-c1ccc(NC(=O)c2ccccc2)c2c1CNC2=O` [Example 11, N-(7-(2-acetylphenyl)-3-oxoisoindolin-4-yl)benzamide], the IC50 is reported as 9.5 µM.
With `CC(=O)c1cccc(-c2ccc(NC(=O)c3ccccc3)c3c2CNC3=O)c1` [Example 12, N-(7-(3-acetylphenyl)-3-oxoisoindolin-4-yl)benzamide] the IC50 was > 20 µM.
Molecule `CSc1ccccc1-c1ccc(NC(=O)c2ccccc2)c2c1CNC2=O` [Example 14, N-(7-(2-(methylthio)phenyl)-3-oxoisoindolin-4-yl)benzamide] has an IC50 of 1.1 µM.
For `O=C(Nc1ccc(-c2ccc(F)cc2F)c2c1C(=O)NC2)c1ccccc1` [Example 15, N-(7-(2,4-difluorophenyl)-3-oxoisoindolin-4-yl)benzamide], the IC50 was > 20 µM.
In the case of `Cc1cccc(-c2ccc(NC(=O)c3ccccc3)c3c2CNC3=O)c1C` [Example 16, N-(7-(2,3-dimethylphenyl)-3-oxoisoindolin-4-yl)benzamide], the IC50 is reported as 1.3 µM.
Molecule `O=C(Nc1ccc(-c2cccc(Cl)c2Cl)c2c1C(=O)NC2)c1ccccc1` [Example 17, N-(7-(2,3-dichlorophenyl)-3-oxoisoindolin-4-yl)benzamide] has an IC50 of 1 µM.
For `O=C(Nc1ccc(-c2ccc(Cl)cc2Cl)c2c1C(=O)NC2)c1ccccc1` [Example 18, N-(7-(2,4-dichlorophenyl)-3-oxoisoindolin-4-yl)benzamide], the IC50 was > 20 µM.
In the case of `O=C(Nc1ccc(-c2ccc(Cl)c(Cl)c2)c2c1C(=O)NC2)c1ccccc1` [Example 20, N-(7-(3,4-dichlorophenyl)-3-oxoisoindolin-4-yl)benzamide], the IC50 is reported as > 20 µM.
`O=C(Nc1ccc(-c2cc(Cl)cc(Cl)c2)c2c1C(=O)NC2)c1ccccc1` [Example 21, N-(7-(3,5-dichlorophenyl)-3-oxoisoindolin-4-yl)benzamide] was tested, and the IC50 was > 20 µM.
`O=C(Nc1ccc(-c2cccc(F)c2Cl)c2c1C(=O)NC2)c1ccccc1` [Example 23, N-(7-(2-chloro-3-fluorophenyl)-3-oxoisoindolin-4-yl)benzamide] showed an IC50 of 8.9 µM.
In the case of `COc1cccc(-c2ccc(NC(=O)c3ccccc3)c3c2CNC3=O)c1F` [Example 24, N-(7-(2-fluoro-3-methoxyphenyl)-3-oxoisoindolin-4-yl)benzamide], the IC50 is reported as > 20 µM.
`Cc1ccc(-c2ccc(NC(=O)c3ccccc3)c3c2CNC3=O)cc1C` [Example 26, N-(7-(3,4-dimethylphenyl)-3-oxoisoindolin-4-yl)benzamide] showed an IC50 of 3.8 µM.
Work on `Cc1cc(C)cc(-c2ccc(NC(=O)c3ccccc3)c3c2CNC3=O)c1` [Example 27, N-(7-(3,5-dimethylphenyl)-3-oxoisoindolin-4-yl)benzamide] yielded an IC50 of 3 µM.
`Cc1cccc(C)c1-c1ccc(NC(=O)c2ccccc2)c2c1CNC2=O` [Example 28, N-(7-(2,6-dimethylphenyl)-3-oxoisoindolin-4-yl)benzamide] gave an IC50 of 1.7 µM.
In the case of `CCc1ccc(NC(=O)c2ccccc2)c2c1CNC2=O` [Example 29, N-(7-ethyl-3-oxoisoindolin-4-yl)benzamide], the IC50 is reported as 1.8 µM.
For `O=C(Nc1ccc(-c2cc(F)cc(F)c2)c2c1C(=O)NC2)c1ccccc1` [Example 30, N-(7-(3,5-difluorophenyl)-3-oxoisoindolin-4-yl)benzamide], the IC50 was > 20 µM.
`Cc1ccc(C)c(-c2ccc(NC(=O)c3ccccc3)c3c2CNC3=O)c1` [Example 31, N-(7-(2,5-dimethylphenyl)-3-oxoisoindolin-4-yl)benzamide] showed an IC50 of 1.6 µM.
With `O=C(Nc1ccc(-c2cc(F)ccc2F)c2c1C(=O)NC2)c1ccccc1` [Example 32, N-(7-(2,5-difluorophenyl)-3-oxoisoindolin-4-yl)benzamide] the IC50 was 1 µM.
`O=C(Nc1ccc(-c2ccc(F)c(F)c2)c2c1C(=O)NC2)c1ccccc1` [Example 33, N-(7-(3,4-difluorophenyl)-3-oxoisoindolin-4-yl)benzamide] gave an IC50 of 3.7 µM.
`O=C(Nc1ccc(-c2cccc(F)c2F)c2c1C(=O)NC2)c1ccccc1` [Example 34, N-(7-(2,3-difluorophenyl)-3-oxoisoindolin-4-yl)benzamide] gave an IC50 of 0.54 µM.
`CCCCc1ccc(NC(=O)c2ccccc2)c2c1CNC2=O` [Example 35, N-(7-butyl-3-oxoisoindolin-4-yl)benzamide] showed an IC50 of 8.6 µM.
For `CCCc1ccc(NC(=O)c2ccc(F)cc2)c2c1CNC2=O` [Example 36, 4-fluoro-N-(3-oxo-7-propylisoindolin-4-yl)benzamide], the IC50 was > 20 µM.
In the case of `Cc1ccc(NC(=O)c2ccccc2)c2c1CNC2=O` [Example 37, N-(7-methyl-3-oxoisoindolin-4-yl)benzamide], the IC50 is reported as 6.1 µM.
Work on `Cc1ccc(-c2ccc(NC(=O)c3ccccc3)c3c2CNC3=O)c(C)c1` [Example 38, N-(7-(2,4-dimethylphenyl)-3-oxoisoindolin-4-yl)benzamide] yielded an IC50 of 1.7 µM.
In the case of `CCc1ccc(-c2ccc(NC(=O)c3ccccc3)c3c2CNC3=O)cc1` [Example 39, N-(7-(4-ethylphenyl)-3-oxoisoindolin-4-yl)benzamide], the IC50 is reported as 6.1 µM.
For `CC(C)Oc1ccc(-c2ccc(NC(=O)c3ccccc3)c3c2CNC3=O)cc1` [Example 40, N-(7-(4-isopropoxyphenyl)-3-oxoisoindolin-4-yl)benzamide], the IC50 was > 20 µM.
Molecule `CSc1ccc(-c2ccc(NC(=O)c3ccccc3)c3c2CNC3=O)cc1` [Example 41, N-(7-(4-(methylthio)phenyl)-3-oxoisoindolin-4-yl)benzamide] has an IC50 of 1.2 µM.
Work on `CCc1cccc(-c2ccc(NC(=O)c3ccccc3)c3c2CNC3=O)c1` [Example 42, N-(7-(3-ethylphenyl)-3-oxoisoindolin-4-yl)benzamide] yielded an IC50 of 3.7 µM.
With `CCCOc1ccccc1-c1ccc(NC(=O)c2ccccc2)c2c1CNC2=O` [Example 43, N-(3-oxo-7-(2-propoxyphenyl)isoindolin-4-yl)benzamide] the IC50 was > 20 µM.
With `CCCOc1cccc(-c2ccc(NC(=O)c3ccccc3)c3c2CNC3=O)c1` [Example 44, N-(3-oxo-7-(3-propoxyphenyl)isoindolin-4-yl)benzamide] the IC50 was > 20 µM.
With `CCCCOc1ccccc1-c1ccc(NC(=O)c2ccccc2)c2c1CNC2=O` [Example 45, N-(7-(2-butoxyphenyl)-3-oxoisoindolin-4-yl)benzamide] the IC50 was > 20 µM.
`CCCCOc1cccc(-c2ccc(NC(=O)c3ccccc3)c3c2CNC3=O)c1` [Example 46, N-(7-(3-butoxyphenyl)-3-oxoisoindolin-4-yl)benzamide] was tested, and the IC50 was > 20 µM.
For `CS(=O)(=O)c1ccccc1-c1ccc(NC(=O)c2ccccc2)c2c1CNC2=O` [Example 47, N-(7-(2-(methylsulfonyl)phenyl)-3-oxoisoindolin-4-yl) benzamide], the IC50 was > 20 µM.
`COc1c(F)cccc1-c1ccc(NC(=O)c2ccccc2)c2c1CNC2=O` [Example 48, N-(7-(3-fluoro-2-methoxyphenyl)-3-oxoisoindolin-4-yl) benzamide] gave an IC50 of 0.49 µM.
`COc1cc(Cl)ccc1-c1ccc(NC(=O)c2ccccc2)c2c1CNC2=O` [Example 49, N-(7-(4-chloro-2-methoxyphenyl)-3-oxoisoindolin-4-yl) benzamide] was tested, and the IC50 was > 20 µM.
